From PMC12041855 (2025)

Assays:
[1] = tested on: Zar1 5′-UTR^ΔrG4 (RNA, single strand) UGAACAAACGAAACACGAAACGCACCC; test: ITC; settings: 60 mM KCl, 25 mM KH2PO4; pH 7.4, 0.4% DMSO, 25°C; n.d., signal too weak; 100 μM BYBX in syringe
[2] = tested on: Zar1 5′-UTR (RNA, G4) UGGGCGGGCGAGGCGCGGGACGCACCC; test: CD melting at 262 nm; settings: 20 mM KCl; 10 mM Tris-HCl pH 7.4; 10 μM BYBX, 5 μM RNA
[3] = tested on: Zar1 5′-UTR (RNA, G4) UGGGCGGGCGAGGCGCGGGACGCACCC; test: ITC; settings: 60 mM KCl, 25 mM KH2PO4; pH 7.4, 0.4% DMSO, 25°C; one set of sites; 10 μM RNA, 100 μM BYBX in syringe
[4] = tested on: Zar1 5′-UTR^ΔrG4 (RNA, single strand) UGAACAAACGAAACACGAAACGCACCC; test: CD melting at 262 nm; settings: 20 mM KCl; 10 mM Tris-HCl pH 7.4; 10 μM BYBX, 5 μM RNA; no melting transition seen
[5] = tested on: Zar1 5′-UTR^ΔrG4 (RNA, single strand) UGAACAAACGAAACACGAAACGCACCC; test: fluorescence titration (ex 447 nm, em 538 nm); settings: 100 mM KCl; 10 mM Tris-HCl pH 7.4, 25°C; 1 μM BYBX; almost no emission
[6] = tested on: Zar1 5′-UTR (RNA, G4) UGGGCGGGCGAGGCGCGGGACGCACCC; test: CD titration; settings: 100 mM KCl; 10 mM Tris-HCl pH 7.4, 25°C; 5 μM RNA, 5-20 μM BYBX
[7] = tested on: Zar1 5′-UTR (RNA, G4) UGGGCGGGCGAGGCGCGGGACGCACCC; test: fluorescence titration (ex 447 nm, em 538 nm); settings: 100 mM KCl; 10 mM Tris-HCl pH 7.4, 25°C; 1 μM BYBX, RNA 0-1.9 μM; 50-fold enhancement

**Q.** Which binding [1] does the source give for `CN1/C(=C/C2=[N+](CC(N)=O)c3ccc4ccccc4c3C2(C)C)Sc2ccccc21` here?
**A.** Its binding is “no”.

**Q.** What about the ΔTm [2] of the same molecule?
**A.** The ΔTm was 11 °C.

**Q.** What about the KD [3] of the same molecule?
**A.** Its KD is 393 nM.

**Q.** What about the ΔTm [4] of the same molecule?
**A.** The ΔTm was 0.06 °C.

**Q.** What about the binding [5] of the same molecule?
**A.** Its binding is “no”.

**Q.** What about the binding [6] of the same molecule?
**A.** The binding was “yes”.

**Q.** And the binding [7]?
**A.** The binding was “yes”.
